Earlier results, collected in US8173361B2, “Method of determining metabolism of a test agent” (The General Hospital Corporation, priority 2003, dated 2012).

Conditions: treatment of chronic hepatitis B; clinical tests suspended

SMILES: O=c1[nH]c(=O)n([C@@H]2O[C@H](CO)[C@@H](O)[C@@H]2F)cc1I [fialuridine]
- drug-related toxicity in clinical tests: drug-related liver failure leading to death in some patients
